Our source for the melting point values is a melting point compilation (Tetko et al.; mined from patent text by program, amines drawn as free bases though some values may be those of a salt).

The structures appear in SMILES notation.

In general, melting point refers to the temperature of the solid-liquid transition.

In the case of `CCCc1oc2ccccc2c1C(=O)c1ccc(OCCBr)cc1`, the melting point was in the range of 68 to 70 °C.
Turning to `Oc1cccc(-c2c(-c3ccccc3F)cnc3c(C(F)(F)F)cccc23)c1`, the melting point fell in the range of 186 to 187 °C.
With `Cc1cn(C2CCc3ccccc3C2)c(=S)n1Cc1ccc(C(=O)O)cc1` (centres undefined), the melting point lay in the range of 181 to 182 °C.
The molecule `CC(=O)Nc1cc(C(C)(C)C)c(Cl)cc1CN(C)C1CCCCC1` registered a melting point of 174 to 176 °C.
Under `CCOc1ccc(OCc2ccc(OCc3nc(-c4ccccc4)oc3C)cc2)c(CCC(=O)O)c1` stands 115 to 116 °C; under `Cc1n[nH]c2c1C(=O)CC(c1ccccc1O)C2` (centres undefined), 252 to 255 °C.
Under `CC(Cc1cccnc1)NC(=O)[C@@H]1C[C@H](C)CC[C@H]1C(C)C` (some centres undefined) stands 108 to 110 °C.
Under `O=C(O)CCC(=O)c1ccc(-c2ccc(Cl)cc2F)cc1` stands 127 to 129 °C; under `CCCOc1ccc(OC)cc1-c1ncc(C(=O)O)c(=O)[nH]1`, 185 to 187 °C.
Molecule `CCc1ccc(Nc2c(F)c(F)cc(F)c2F)c(CC(=O)OC(C)(C)C(=O)O)c1` displayed a melting point of 104 to 108 °C.
Under `CC(=O)c1ccc(C(Br)C(=O)OC(C)(C)C)cc1` (centres undefined) stands 54 to 56 °C; under `CCOC(=O)c1cc(NCc2ccccc2)c(N2CCOCC2)c(S(N)(=O)=O)c1`, 185 to 186 °C; under `CC1(CCCN)NC(=O)NC1=O` (centres undefined), 183 to 185 °C.
`O=c1[nH]c2ccc(-c3cccc(Cl)c3)cc2s1` had a melting point of 195 to 196 °C.
Molecule `Nc1ccccc1CN[C@@H](CSCC(=O)O)C(=O)O` registered a melting point of 214 °C.
Regarding `CCCC(=O)CC(=O)c1ccc(C2CCC(CC)CC2)cc1` (centres undefined), the melting point came to 99 °C.
Under `CSC(=C[N+](=O)[O-])NCCSCc1[nH]cnc1C` stands 147 to 150 °C; under `CCCCn1c(C)c(C)cc(NC(=O)OCc2ccccc2)c1=O`, 65 to 66 °C.
In turn, `NNC(=O)OCCOc1ccc(C(=O)c2ccccc2)c(O)c1` gave a melting point of 58 to 61 °C.
In turn, `Cc1cc(Br)ccc1-n1c(CF)nc2ccc(N)cc2c1=O` yielded a melting point of 194 to 196 °C.
Under `Cc1ccc(C(=O)NC(NC(=O)Nc2ccccc2)C(Cl)(Cl)Cl)cc1` (centres undefined) stands 230 to 233 °C; under `CC(=S)OCc1ccc([N+](=O)[O-])cc1`, 55.5 to 57.5 °C.
Under `CCCCCCCCCCCCCCCSCCCO` stands 36 to 39 °C; under `FC(F)(F)c1ccc(C=Cc2nc[nH]n2)cc1`, 141 to 143 °C; under `CCOC(=O)CCc1cccc(OCc2ccc(OCc3nc(-c4ccccc4)oc3C)cc2)c1`, 90 to 91 °C.
Under `CCOC(=O)Cn1c(-c2ccc(OC)cc2)nc2cccnc21` stands 107 to 108 °C; under `O=[N+]([O-])c1ccc(OCCN2CCC(Cc3ccccc3)CC2)cc1O`, 136 to 137 °C.
In turn, `CCOC(=O)C1=C(C)Nc2nc(N)nc(N)c2C1c1ccc(OC)cc1` (centres undefined) registered a melting point of 98 °C.
Regarding `COC(=O)CCSc1nc(C(N)=O)cs1`, the melting point was 151 to 152 °C.
Under `NN1C=NNC1=Cc1ccccc1O` stands 210 to 212 °C.
For `CSc1cccc(CNC(=O)c2nc3scc(COCc4ccc(C(=O)O)cc4)c3c(=O)[nH]2)c1` the value was 252 to 254 °C.
`COC(=O)C(C)(C)Nc1ncc(I)cc1[N+](=O)[O-]` registered a melting point of 121 to 122 °C.
Take `COc1ccccc1Cc1nc2ccccc2c(=O)n1CCO`: the melting point was 154 to 155 °C.
In turn, `CN(C)S(=O)(=O)c1cc2c(c(Cl)c1Cl)OC(CCl)C2` (centres undefined) came in with a melting point of 77 to 78 °C.
The molecule `Cc1cc(C(C)NC(=O)NO)c(C)s1` (centres undefined) came in with a melting point of 124 to 126 °C.
`O=C1C(=O)c2ccccc2C2=C1SCC(COc1cccnc1)O2` (centres undefined) had a melting point of 153 to 155 °C.
Under `COc1cc2c(cc1C(F)(F)F)N(C(=O)Nc1cc(F)cc(-c3cnccc3C)c1)CC2` stands 191 to 195 °C; under `CCOC(=O)c1cc2cc(-c3ccccc3)ccc2nn1`, 160 to 162 °C; under `COC(=O)c1cccc(NC(=O)CC(=O)c2ccccc2)c1C(=O)OC`, 100 to 103 °C.
Under `CCc1cc2c(c3c1[nH]c1ccc(O)cc13)C(=O)N(CCN(CC)CC)C2=O` stands 188 to 189 °C; under `CCOC(=O)Cc1c(C)n(Cc2ccc(Cl)cc2)c2cccc(OCc3csc(-c4ccc(Cl)cc4)n3)c12`, 133 to 135 °C; under `CC(C)N(C)C(=O)C(Cc1ccc(C=O)cc1)NC(=O)OC(C)(C)C` (centres undefined), 122 °C.
`CCCNCC(=O)Nc1ccc2c(c1)C(=O)c1cc(NC(=O)CNCCC)ccc1C2=O`: the melting point came out at 143 °C.
Under `Cc1cc(C(C)(C)C)c(O)c(S(N)(=O)=O)c1` stands 114 to 116 °C.
Under `Nc1ccc2ccccc2c1-c1c(P(=O)(c2ccccc2)c2ccccc2)ccc2ccccc12` stands 133 °C; under `Cc1cscc1-c1cccc2c1ccn2-c1ccnc(NC2CCC(C(=O)N3CCC(O)CC3)CC2)n1` (centres undefined), 168 to 188 °C; under `O=C(Cn1c(-c2ccc(Cl)cc2)nc2cccnc21)NC1CCCC1`, 260 to 261 °C.
Under `CC(C)C(=O)N(O)C(c1ccccc1)c1cc(C(C)(C)C)c(O)c(C(C)(C)C)c1` (centres undefined) stands 179 to 180 °C; under `CCOc1cc(C(CS(C)(=O)=O)N2C(=O)c3cccc(CNC(C)=O)c3C2=O)ccc1OC` (centres undefined), 84 to 86 °C.
Take `CNC(=O)CCCCCCCN(Cc1ccccc1)S(=O)(=O)c1ccc(Cl)c(COc2cccc3ccc(C)nc23)c1Cl`: the melting point came to 120 °C.
For `CCOC(=O)c1cnc2n(c1=O)C(C)CCC2C(=S)NC` (centres undefined) the value was 199 to 200 °C; for `O=C1N(CC2COCCO2)c2ccccc2C12COc1cc3c(cc12)OCO3` (centres undefined), 147 to 149 °C.
Under `O=[N+]([O-])c1cn2c(n1)O[C@@H](COc1ccc(N3CCC(Nc4ccc(Oc5ccc(OC(F)(F)F)cc5)cc4)CC3)cc1)CC2` stands 120 to 121 °C; under `CC(C)=CCN1Cc2cccc3[nH]c(=S)n(c23)CC1C` (centres undefined), 128 °C; under `COc1ccc(OC)c(C=CC(=O)C=Cc2cc(OC)ccc2OC)c1`, 103 to 104 °C.
`O=c1c2c[nH]c3c(c-2nn1-c1ccc(Cl)cc1)COCC3` had a melting point of 335 to 337 °C.
Under `O=C1NC(=O)C(CC#Cc2ccc(Cl)cc2)(S(=O)(=O)c2cc(Cl)c(Cl)s2)S1` (centres undefined) stands 160 °C.
`CCN1C(=O)C(C)(C)C(=O)N(C)c2cc(OCCCn3c(=O)c(Br)cc4ccccc43)ccc21` gave a melting point of 168 to 169 °C.
For `CN1CCN(c2ccccc2C=C2C(=O)Nc3ccc(Cl)cc32)CC1` the value was 235 to 237 °C.
For `Cc1ccc2c(c1)c(O)c(C(=O)NC1CCCCC1)c(=O)n2C` the value was 218 °C; for `CCOC(=O)c1nn(-c2cccc(Br)c2)c(=O)c2c(N)scc12`, 163 to 165 °C; for `Nc1c(-c2ccc(C(F)(F)F)cc2F)nnn1-c1ccc(S(N)(=O)=O)cc1`, 184 to 185 °C.
On to `COc1cc2onc(-c3ccccc3F)c2cc1Cl`, for which the melting point lay within 165 to 166 °C.
Under `Cc1nccc(-c2ccccc2)c1/C=C/C=O` stands 98 to 99 °C; under `CN(C(=O)C(F)(F)F)C1(C)CN(c2nc3c(cc2F)c(=O)c(C(=O)O)cn3C(C)(C)C)C1`, 263 to 265 °C.
Molecule `CCOC(=O)c1cc2cccc(OCc3ccccc3)c2[nH]1` showed a melting point of 82 to 83 °C.
For the molecule `CCCCC(=O)Nc1ccc([N+](=O)[O-])cc1`, the melting point lay in the range of 107 to 116 °C.
Take `CCCc1c(OCCCCCNC(=O)NCCCCc2cccnc2)ccc(C(C)=O)c1O`: the melting point lay within 73 to 76 °C.
For `COC(=O)c1cc([N+](=O)[O-])c(C(F)(F)F)cc1N` the value was 175 to 177 °C; for `COc1ccc(COc2c(C)c(C)c3c(c2C)C(c2ccc(N4CCOCC4)cc2)C(C)(C)O3)cc1` (centres undefined), 110 to 112 °C; for `COc1ccc(-c2cc3cc(F)c(F)cc3[nH]2)cc1NC(=S)Nc1cccc(C(=O)O)c1`, 221 to 223 °C.
Take `C[C@@H]1COC2(CCCC2)N1C(=O)c1ccccc1`: the melting point was in the range of 65.5 to 67.5 °C.
With `Cc1ccc(Sc2cncc3sc(C(=O)NCC(O)CO)cc23)cc1` (centres undefined), the melting point lay in the range of 120 to 122 °C.
For `Oc1ccc(Oc2cccc(-c3c(Cc4ccccc4)cnc4c(C(F)(F)F)cccc34)c2)cc1` the value was 55 to 60 °C; for `CCCCCCCCCCCCCCCCCC(=O)Nc1cccc(N)c1`, 98 to 102 °C.
For `CCCCCCCCCc1cnc(-c2ccc(C(=O)OC)cc2)nc1` the value was 61.7 °C; for `C[C@H](NC(=O)OCc1ccccc1)C(=O)N[C@@H](Cc1ccccc1)C(=O)O`, 121 to 122 °C; for `CN1C(=O)C(c2ccc(OCCF)cc2)(c2ccc(F)c(-c3cccnc3F)c2)N=C1N` (centres undefined), 135 °C.
Take `CNc1ccc(C#N)cc1`: the melting point was in the range of 85 to 87 °C.
Under `O=C(O)c1cn(-c2c[nH]nn2)c2cc(F)c(F)cc2c1=O` stands 215 to 224 °C; under `COC(=O)c1cn(-c2cc(C(=O)OC)c(N)cc2C(F)(F)F)cn1`, 206 to 208 °C; under `CC[C@H](C)[C@H](NC(=O)[C@H](Cc1ccccc1)NC(=O)OCc1ccccc1)C(=O)OC`, 94.5 to 95.5 °C.
Turning to `C=CC(=O)OCCS(=O)(=O)c1ccc(O)cc1`, the melting point lay within 91 to 92 °C.
For `O=C(CO)NCCCn1c(-c2ccc(Br)cc2)csc1=Nc1ccccc1` the value was 185 to 186 °C.
For `CC(C)(C)OC(=O)N[C@@H](Cc1ccccc1)C(=O)CCC(=O)N[C@@H](Cc1c[nH]c2ccccc12)C(=O)O`, the melting point is 141 to 143 °C.
As to `CSc1c(C)cc(O)c(C(=O)Nc2ccc(S(=O)(=O)C(F)(F)F)cc2Cl)c1C`, the melting point is 201 to 202 °C.
For `CCCCS(=O)(=O)Nc1ccc(Oc2cccc3cccnc23)cc1` the value was 162 °C.
The molecule `Brc1ccc2cc(OCc3ccc4ccccc4n3)ccc2c1` displayed a melting point of 135 to 137 °C.
For `CC(C)(C)OC(=O)NCC(N)c1c[nH]c2cc(Br)ccc12` (centres undefined) the value was 80 °C.
